The source of these data is PubChem BioAssay AID330 (DTP/NCI, 2004).

Where “and” joins values, the source holds several entries; their conditions need not be identical. Equal values may be shown once. Toxic doses and inconclusive results are not listed. Peptide text beside a SMILES is read from it. * marks the point of attachment. Cbz = O=C(OCc1ccccc1)*

This test relates to P388 leukemia ip, CD2F1 mice, survival T/C. The test can be described thus: NCI In Vivo Anticancer Drug Screen. Data for tumor model P388 Leukemia (intraperitoneal) in CD2F1 (CDF1) mice. Particulars: endpoint: median survival time, higher = longer survival. The procedure, abridged: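 Mice carrying the transplanted tumor received test compound or vehicle. Survival was recorded in each group, and the value is the treated-group measurement divided by that of the vehicle-treated control group.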

Setting [1] is: dose: 25.0 mg/kg/injection, schedule: Q01DX009 (ip), vehicle: Klucel (hydroxypropylcellulose) (HPC).
Where [2] appears, read: dose: 50.0 mg/kg/injection, schedule: Q01DX009 (ip), vehicle: Klucel (hydroxypropylcellulose) (HPC).
The mark [3] stands for this setting: dose: 100.0 mg/kg/injection, schedule: Q01DX009 (ip), vehicle: Klucel (hydroxypropylcellulose) (HPC).
[4] abbreviates: dose: 200.0 mg/kg/injection, schedule: Q01DX009 (ip), vehicle: Klucel (hydroxypropylcellulose) (HPC).
Setting [5] is: dose: 50.0 mg/kg/injection, schedule: Q01DX005 (ip), vehicle: Klucel (hydroxypropylcellulose) (HPC).
Setting [6] is: dose: 100.0 mg/kg/injection, schedule: Q01DX005 (ip), vehicle: Klucel (hydroxypropylcellulose) (HPC).
[7] abbreviates: dose: 25.0 mg/kg/injection, schedule: Q01DX009 (ip), vehicle: saline with Tween-80.
[8] abbreviates: dose: 50.0 mg/kg/injection, schedule: Q01DX009 (ip), vehicle: saline with Tween-80.
Where [9] appears, read: dose: 50.0 mg/kg/injection, schedule: Q01DX005 (ip), vehicle: saline with Tween-80.
Setting [10] is: dose: 100.0 mg/kg/injection, schedule: Q01DX005 (ip), vehicle: saline with Tween-80.
Setting [11] is: dose: 200.0 mg/kg/injection, schedule: Q01DX005 (ip), vehicle: saline with Tween-80.
The mark [12] stands for this setting: dose: 100.0 mg/kg/injection, schedule: Q01DX009 (ip), vehicle: saline with Tween-80.
[13] abbreviates: dose: 200.0 mg/kg/injection, schedule: Q01DX009 (ip), vehicle: saline with Tween-80.
Setting [14] is: dose: 60.0 mg/kg/injection, schedule: Q01DX005 (ip), vehicle: saline with Tween-80.

For the compound `NC(=O)C(CC(=O)O)NC(=O)OCc1ccccc1` (configuration not stated), the T/C was 100 % of control (dose: 4.0 mg/kg/injection, schedule: Q01DX009 (ip), vehicle: other); 114 % of control (dose: 8.0 mg/kg/injection, schedule: Q01DX009 (ip), vehicle: other); 101 % of control (dose: 16.0 mg/kg/injection, schedule: Q01DX009 (ip), vehicle: other); 98 % of control (dose: 32.0 mg/kg/injection, schedule: Q01DX009 (ip), vehicle: other); 96 % of control (dose: 50.0 mg/kg/injection, schedule: Q01DX009 (ip), vehicle: other); 91 % of control (dose: 64.0 mg/kg/injection, schedule: Q01DX009 (ip), vehicle: other). Moreover, the T/C is, setting by setting: (dose: 100.0 mg/kg/injection, schedule: Q01DX009 (ip), vehicle: other) 90 % of control; (dose: 150.0 mg/kg/injection, schedule: Q01DX009 (ip), vehicle: other) 109 % of control; (dose: 200.0 mg/kg/injection, schedule: Q01DX009 (ip), vehicle: other) 105 % of control; (dose: 400.0 mg/kg/injection, schedule: Q01DX009 (ip), vehicle: other) 113 % of control.

`O=c1cc(-c2ccc(O)cc2)oc2cc(O)c(C3OC(CO)C(O)C(O)C3OC3OC(CO)C(O)C(O)C3O)c(O)c12` (configuration not stated): the T/C is 102 % of control under setting [1], 107 % of control under setting [2], 105 % of control under setting [3] and 99 % of control under setting [4].

`N#Cc1c(C(F)(F)F)cc(-c2cccs2)nc1SC(C(=O)Nc1c(F)cccc1F)c1ccccc1` (configuration not stated): the T/C was 94 % of control under setting [5]; 94 % of control under setting [6]; 94 % of control (dose: 200.0 mg/kg/injection, schedule: Q01DX005 (ip), vehicle: Klucel (hydroxypropylcellulose) (HPC)).

With `COC1=C(OC)C(=O)C(OC)=C(OC)C1=O`, the T/C (dose: 12.5 mg/kg/injection, schedule: Q01DX009 (ip), vehicle: saline with Tween-80) is 106 % of control; the T/C under setting [7] is 98 % of control; the T/C under setting [8] is 104 % of control.

On to `CC(C)CC(NC(=O)C(NC(=O)OCc1ccccc1)C(C)C)C(=O)O` (stereo not drawn) (Cbz-Val-Leu-OH; configuration not given here), for which the T/C was 92 % of control under setting [9], 106 % of control under setting [10] and 111 % of control under setting [11].

On to `Clc1ccc(S/N=C/c2ccccc2)cc1`, for which the T/C is, setting by setting: under setting [8], 113 % of control; under setting [12], 114 % of control.

Consider `CC1CCCN(C(=O)Nc2ccc([N+](=O)[O-])cc2)C1` (configuration not stated), for which the T/C runs as follows: under setting [8], 99 % of control; under setting [12], 94 % of control; under setting [13], 92 % of control.

`CS(=O)(=O)CCS(C)(=O)=O`: the T/C was 102 % of control under setting [8] and 89 % of control under setting [13].

On to `CC(C)c1nnc2cc3c(cc2c1N)oc1ccccc13`, for which the T/C by setting is: (dose: 100.0 mg/kg/injection, schedule: Q04DX002 (ip), vehicle: saline with Tween-80) 87 % of control; (dose: 200.0 mg/kg/injection, schedule: Q04DX002 (ip), vehicle: saline with Tween-80) 92 % of control; (dose: 400.0 mg/kg/injection, schedule: Q04DX002 (ip), vehicle: saline with Tween-80) 87 % of control.

Consider `O=C1CC2c3ccccc3CCN2C2=C1CCC2` (configuration not stated), for which the T/C is 96 % of control under setting [9] and 104 % of control under setting [10].

For the compound `O=C(O)CSC(=O)NCCCCCCNC(=O)Nc1ccccc1`, the T/C is, setting by setting: under setting [9], 104 % of control; under setting [10], 105 % of control; under setting [11], 112 % of control.

On to `Cc1nc(CO)cc([N+](=O)[O-])c1C`, for which the T/C is 101 % of control (dose: 12.5 mg/kg/injection, schedule: Q01DX009 (ip), vehicle: distilled water + Tween-80); 101 % of control (dose: 25.0 mg/kg/injection, schedule: Q01DX009 (ip), vehicle: distilled water + Tween-80); 100 % of control (dose: 50.0 mg/kg/injection, schedule: Q01DX009 (ip), vehicle: distilled water + Tween-80); 101 % of control (dose: 100.0 mg/kg/injection, schedule: Q01DX009 (ip), vehicle: distilled water + Tween-80); 104 % of control (dose: 200.0 mg/kg/injection, schedule: Q01DX009 (ip), vehicle: distilled water + Tween-80).

With `CN(C)CCN1C(=O)c2cccc3cc(N)cc(c23)C1=O`, the T/C runs as follows: (dose: 2.0 mg/kg/injection, schedule: Q01DX009 (ip), vehicle: saline with Tween-80) 111 % of control; (dose: 8.0 mg/kg/injection, schedule: Q01DX009 (ip), vehicle: saline with Tween-80) 176 % of control.

As to `O=C1C(=C2CCCC2)CC/C1=C1/SS/C(=C2/CCC(=C3CCCC3)C2=O)S1`, the T/C is, setting by setting: under setting [2], 99 % of control; under setting [3], 101 % of control; under setting [4], 100 % of control.

`CCn1c2ccc([N+](=O)[O-])cc2c2c([N+](=O)[O-])c(N)ccc21`: the T/C under setting [9] is 92 % of control, the T/C under setting [10] is 87 % of control and the T/C under setting [11] is 90 % of control.

As to `CCOC(=O)C(F)C(Br)C(=O)OCC` (configuration not stated), the T/C runs as follows: under setting [7], 105 % of control and 120 % of control; under setting [8], 117 % of control; under setting [12], 123 % of control.

As for `CC(C=O)[Se]c1ccccc1` (configuration not stated), the T/C under setting [14] is 100 % of control.

Consider `Cn1cnc2c(=O)[nH]c(N)nc21`, for which the T/C under setting [9] is 102 % of control, the T/C under setting [10] is 107 % of control and the T/C under setting [11] is 107 % of control.

As to `S=C1SCN(c2ccc(Br)cc2)CN1c1ccc2[nH]c(=S)sc2c1`, the T/C is 106 % of control (dose: 6.25 mg/kg/injection, schedule: Q01DX009 (ip), vehicle: Klucel (hydroxypropylcellulose) (HPC)); 113 % of control (dose: 12.5 mg/kg/injection, schedule: Q01DX009 (ip), vehicle: Klucel (hydroxypropylcellulose) (HPC)); 106 % of control under setting [1].

As for `C=C(Cl)CN(CC)CCO`, the T/C by setting is: (dose: 25.0 mg/kg/injection, schedule: Q01DX009 (ip), vehicle: saline sonified) 100 % of control; (dose: 50.0 mg/kg/injection, schedule: Q01DX009 (ip), vehicle: saline sonified) 100 % of control; (dose: 100.0 mg/kg/injection, schedule: Q01DX009 (ip), vehicle: saline sonified) 100 % of control.

For the compound `C=c1cc2c(cc1=C)C(=O)c1ccccc1C2=O`, the T/C by setting is: (dose: 15.0 mg/kg/injection, schedule: Q01DX005 (ip), vehicle: saline with Tween-80) 89 % of control; (dose: 30.0 mg/kg/injection, schedule: Q01DX005 (ip), vehicle: saline with Tween-80) 90 % of control; under setting [14], 86 % of control and 91 % of control; (dose: 240.0 mg/kg/injection, schedule: Q01DX005 (ip), vehicle: saline with Tween-80) 89 % of control.

On to `NC(=O)C1OC(n2cnc3c(N)ncnc32)C(O)C1O` (configuration not stated), for which the T/C by setting is: (dose: 1.56 mg/kg/injection, schedule: Q01DX005 (ip), vehicle: saline with Tween-80) 100 % of control and 104 % of control; (dose: 3.13 mg/kg/injection, schedule: Q01DX005 (ip), vehicle: saline with Tween-80) 105 % of control and 114 % of control; (dose: 6.25 mg/kg/injection, schedule: Q01DX005 (ip), vehicle: saline with Tween-80) 109 % of control and 115 % of control and 121 % of control.

With `CCCCCCCCCCCCCCCCCSc1c(O)c(O)c2cccnc2c1O` (tested in a mixture with another compound), the T/C reads like this: (dose: 60.0 mg/kg/injection, schedule: Q01DX005 (ip), vehicle: Klucel (hydroxypropylcellulose) (HPC)) 104 % of control; (dose: 120.0 mg/kg/injection, schedule: Q01DX005 (ip), vehicle: Klucel (hydroxypropylcellulose) (HPC)) 105 % of control.

For the compound `Cc1ccc(-c2cc(=O)c3cccc(CC(=O)O)c3o2)cc1`, the T/C was 112 % of control and 89 % of control (dose: 25.0 mg/kg/injection, schedule: Q01DX005 (ip), vehicle: Klucel (hydroxypropylcellulose) (HPC)); 104 % of control and 118 % of control under setting [5]; 119 % of control and 90 % of control under setting [6].

For `COC(=O)c1cc(-c2ccco2)n2c(NC(=O)Nc3ccc(Cl)cc3)nnc2n1`, the T/C is, setting by setting: under setting [9], 98 % of control; under setting [10], 103 % of control; under setting [11], 95 % of control.

With `CC(C)CC(C(=O)O)N(CC(=O)O)CC(=O)O` (configuration not stated), the T/C was 97 % of control (dose: 12.5 mg/kg/injection, schedule: Q01DX005 (ip), vehicle: saline); 87 % of control (dose: 25.0 mg/kg/injection, schedule: Q01DX005 (ip), vehicle: saline); 98 % of control (dose: 50.0 mg/kg/injection, schedule: Q01DX005 (ip), vehicle: saline).
